Results published in the supplement of paper PMC10307832.

How the values were obtained:
Experiment in all cases: relative viability (nuclei count vs DMSO), 5 days (fraction); higher = more cells survive
ABC-1 = system: ABC-1
Outline: (§1)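 Cells from lung cancer lines were seeded into 1536-well plates and, one day later, dosed by pin tool. Treatments were either a single drug or a fixed dose of an anchor drug with five library-drug doses (not always all listed) in √10 steps. After 5 days, nuclei were stained in a one-step fixation (final 0.05% Triton X-100, 1% formaldehyde, 1 ug/ml Hoechst) and counted on 4× images, and relative viability is the treated-to-vehicle nuclei ratio, as the median of duplicate plates.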

CAL-12T = system: CAL-12T
Outline: as §1

COR-L 105 = system: COR-L 105
Outline: as §1

EMC-BAC-2 = system: EMC-BAC-2
Outline: as §1

EPLC-272H = system: EPLC-272H
Outline: as §1

HCC-15 = system: HCC-15
Outline: as §1

HCC-78 = system: HCC-78
Outline: as §1

HOP-62 = system: HOP-62
Outline: as §1

LXF-289 = system: LXF-289
Outline: as §1

NCI-H1666 = system: NCI-H1666
Outline: as §1

NCI-H1755 = system: NCI-H1755
Outline: as §1

NCI-H1915 = system: NCI-H1915
Outline: as §1

NCI-H1975 = system: NCI-H1975
Outline: as §1

NCI-H1993 = system: NCI-H1993
Outline: as §1

NCI-H2023 = system: NCI-H2023
Outline: as §1

NCI-H2085 = system: NCI-H2085
Outline: as §1

NCI-H2126 = system: NCI-H2126
Outline: as §1

NCI-H3122 = system: NCI-H3122
Outline: as §1

NCI-H322M = system: NCI-H322M
Outline: as §1

NCI-H358 = system: NCI-H358
Outline: as §1

UMC-11 = system: UMC-11
Outline: as §1

Compound: COc1cc(N2CCC(C(N)=O)CC2)ccc1Nc1nc(N)c(Cl)c(Nc2ccccc2S(=O)(=O)C(C)C)n1 [HG-5-88-01] + CS(=O)(=O)CCNCc1ccc(-c2ccc3ncnc(Nc4ccc(OCc5cccc(F)c5)c(Cl)c4)c3c2)o1 [Lapatinib] (partner 2 µM)
- relative viability (ABC-1; first compound 0.04 µM): 1.2
- relative viability (ABC-1; first compound 0.1265 µM): 1.12
- relative viability (ABC-1; first compound 0.4 µM): 0.996
- relative viability (ABC-1; first compound 1.265 µM): 0.624
- relative viability (ABC-1; first compound 4 µM): 1.32
- relative viability (CAL-12T; first compound 0.04 µM): 0.618
- relative viability (CAL-12T; first compound 0.1265 µM): 0.698
- relative viability (CAL-12T; first compound 0.4 µM): 0.641
- relative viability (CAL-12T; first compound 1.265 µM): 0.32
- relative viability (CAL-12T; first compound 4 µM): 0.359
- relative viability (COR-L 105; first compound 0.04 µM): 0.346
- relative viability (COR-L 105; first compound 0.1265 µM): 0.375
- relative viability (COR-L 105; first compound 0.4 µM): 0.329
- relative viability (COR-L 105; first compound 1.265 µM): 0.336
- relative viability (COR-L 105; first compound 4 µM): 0.334
- relative viability (EMC-BAC-2; first compound 0.04 µM): 0.928
- relative viability (EMC-BAC-2; first compound 0.1265 µM): 0.93
- relative viability (EMC-BAC-2; first compound 0.4 µM): 0.802
- relative viability (EMC-BAC-2; first compound 1.265 µM): 0.906
- relative viability (EMC-BAC-2; first compound 4 µM): 0.684
- relative viability (EPLC-272H; first compound 0.04 µM): 0.871
- relative viability (EPLC-272H; first compound 0.1265 µM): 0.952
- relative viability (EPLC-272H; first compound 0.4 µM): 0.994
- relative viability (EPLC-272H; first compound 1.265 µM): 0.949
- relative viability (EPLC-272H; first compound 4 µM): 0.0809
- relative viability (HCC-15; first compound 0.04 µM): 0.878
- relative viability (HCC-15; first compound 0.1265 µM): 0.83
- relative viability (HCC-15; first compound 0.4 µM): 0.792
- relative viability (HCC-15; first compound 1.265 µM): 0.894
- relative viability (HCC-15; first compound 4 µM): 0.449
- relative viability (HCC-78; first compound 0.04 µM): 0.737
- relative viability (HCC-78; first compound 0.1265 µM): 0.465
- relative viability (HCC-78; first compound 0.4 µM): 0.223
- relative viability (HCC-78; first compound 1.265 µM): 0.264
- relative viability (HCC-78; first compound 4 µM): 0.226
- relative viability (HOP-62; first compound 0.04 µM): 1.1
- relative viability (HOP-62; first compound 0.1265 µM): 1.1
- relative viability (HOP-62; first compound 0.4 µM): 1.05
- relative viability (HOP-62; first compound 1.265 µM): 1.2
- relative viability (HOP-62; first compound 4 µM): 0.893
- relative viability (LXF-289; first compound 0.04 µM): 0.913
- relative viability (LXF-289; first compound 0.1265 µM): 0.904
- relative viability (LXF-289; first compound 0.4 µM): 0.883
- relative viability (LXF-289; first compound 1.265 µM): 0.928
- relative viability (LXF-289; first compound 4 µM): 0.867
- relative viability (NCI-H1666; first compound 0.04 µM): 0.742
- relative viability (NCI-H1666; first compound 0.1265 µM): 0.742
- relative viability (NCI-H1666; first compound 0.4 µM): 0.5
- relative viability (NCI-H1666; first compound 1.265 µM): 0.463
- relative viability (NCI-H1666; first compound 4 µM): 0.293
- relative viability (NCI-H1755; first compound 0.1265 µM): 1.04
- relative viability (NCI-H1755; first compound 0.4 µM): 0.986
- relative viability (NCI-H1755; first compound 1.265 µM): 1.02
- relative viability (NCI-H1755; first compound 4 µM): 1.15
- relative viability (NCI-H1915; first compound 0.04 µM): 0.958
- relative viability (NCI-H1915; first compound 0.1265 µM): 1
- relative viability (NCI-H1915; first compound 0.4 µM): 0.977
- relative viability (NCI-H1915; first compound 1.265 µM): 1
- relative viability (NCI-H1915; first compound 4 µM): 0.698
- relative viability (NCI-H1975; first compound 0.04 µM): 0.896
- relative viability (NCI-H1975; first compound 0.1265 µM): 0.907
- relative viability (NCI-H1975; first compound 0.4 µM): 0.723
- relative viability (NCI-H1975; first compound 1.265 µM): 0.736
- relative viability (NCI-H1975; first compound 4 µM): 0.447
- relative viability (NCI-H1993; first compound 0.04 µM): 0.713
- relative viability (NCI-H1993; first compound 0.1265 µM): 0.853
- relative viability (NCI-H1993; first compound 0.4 µM): 0.843
- relative viability (NCI-H1993; first compound 1.265 µM): 0.79
- relative viability (NCI-H1993; first compound 4 µM): 0.788
- relative viability (NCI-H2023; first compound 0.04 µM): 0.926
- relative viability (NCI-H2023; first compound 0.1265 µM): 1.32
- relative viability (NCI-H2023; first compound 0.4 µM): 0.573
- relative viability (NCI-H2023; first compound 1.265 µM): 0.708
- relative viability (NCI-H2023; first compound 4 µM): 0.335
- relative viability (NCI-H2085; first compound 0.04 µM): 0.718
- relative viability (NCI-H2085; first compound 0.1265 µM): 0.86
- relative viability (NCI-H2085; first compound 0.4 µM): 0.761
- relative viability (NCI-H2085; first compound 1.265 µM): 0.65
- relative viability (NCI-H2085; first compound 4 µM): 0.557
- relative viability (NCI-H2126; first compound 0.04 µM): 0.649
- relative viability (NCI-H2126; first compound 0.1265 µM): 0.712
- relative viability (NCI-H2126; first compound 0.4 µM): 0.706
- relative viability (NCI-H2126; first compound 1.265 µM): 0.726
- relative viability (NCI-H2126; first compound 4 µM): 0.45
- relative viability (NCI-H3122; first compound 0.04 µM): 0.763
- relative viability (NCI-H3122; first compound 0.1265 µM): 0.357
- relative viability (NCI-H3122; first compound 0.4 µM): 0.281
- relative viability (NCI-H3122; first compound 1.265 µM): 0.221
- relative viability (NCI-H3122; first compound 4 µM): 0.2
- relative viability (NCI-H322M; first compound 0.04 µM): 0.583
- relative viability (NCI-H322M; first compound 0.1265 µM): 0.428
- relative viability (NCI-H322M; first compound 0.4 µM): 0.492
- relative viability (NCI-H322M; first compound 1.265 µM): 0.501
- relative viability (NCI-H322M; first compound 4 µM): 0.485
- relative viability (NCI-H358; first compound 0.04 µM): 0.451
- relative viability (NCI-H358; first compound 0.1265 µM): 0.378
- relative viability (NCI-H358; first compound 0.4 µM): 0.307
- relative viability (NCI-H358; first compound 1.265 µM): 0.256
- relative viability (NCI-H358; first compound 4 µM): 0.304
- relative viability (UMC-11; first compound 0.04 µM): 0.84
- relative viability (UMC-11; first compound 0.1265 µM): 1.13
- relative viability (UMC-11; first compound 0.4 µM): 0.837
- relative viability (UMC-11; first compound 1.265 µM): 0.927
- relative viability (UMC-11; first compound 4 µM): 0.632
